Calls of active or inactive are those of the source. No rule for the calls is given here.
Each compound was assayed on NIH 3T3 cells, IRF-1 mRNA qPCR, IFNg-stimulated (assay: enhancement of STAT1 target gene IRF-1 transcripts – SYBR qPCR, NIH 3T3 cells, powder samples, counter-screen for STAT1 activator project, late-stage follow-up (AID 449759)). Settings: at 10 µM; stronger effect = higher value.
For `COc1ccc(-c2cc(C)nc3c(-c4ccccc4)cnn23)cc1`, the fold change was 0.81 (inactive). In the case of `CCN(CC)c1ccc2cc(C(=O)Nc3ccccn3)c(=O)oc2c1`, the fold change is reported as 0.85 (inactive). `COc1ccc2[nH]c3c(c2c1)CCn1c-3nc2ccccc2c1=O` was tested, and the fold change was 0.89 (inactive). In the case of `O=C(/C=C/Nc1ccccc1F)c1ccc(Br)cc1`, the fold change is reported as 0.77 (inactive). With `CCOC(=O)/C(C#N)=C/c1cc(C)n(-c2ccccc2)c1C` the fold change was 0.7 (inactive). With `N#C/C(=C\c1ccc(N2CCOCC2)o1)c1nc2ccccc2[nH]1` the fold change was 0.5 (inactive). With `Cc1ccc(C(=O)Nc2nc3ccccc3s2)s1` the fold change was 0.93 (inactive). For `COc1ccc(-c2csc(N3C(=O)CNC3=S)n2)cc1`, the fold change was 0.34 (inactive).
